Values joined by “and” are separate entries in the source; they are usually repeats but may differ in a detail not shown here. Identical values can stand only once. Active and inactive are the calls of the source. No cut-off for these calls is given here.
Legend:
[1] = biological target: T1, E-selectin (Homo sapiens) (UniProt P16581); test: Compound was tested in a cell-free SLe-polymer/Selectin E assay, at 3 mM concentration.
T1 sequence (whole entry): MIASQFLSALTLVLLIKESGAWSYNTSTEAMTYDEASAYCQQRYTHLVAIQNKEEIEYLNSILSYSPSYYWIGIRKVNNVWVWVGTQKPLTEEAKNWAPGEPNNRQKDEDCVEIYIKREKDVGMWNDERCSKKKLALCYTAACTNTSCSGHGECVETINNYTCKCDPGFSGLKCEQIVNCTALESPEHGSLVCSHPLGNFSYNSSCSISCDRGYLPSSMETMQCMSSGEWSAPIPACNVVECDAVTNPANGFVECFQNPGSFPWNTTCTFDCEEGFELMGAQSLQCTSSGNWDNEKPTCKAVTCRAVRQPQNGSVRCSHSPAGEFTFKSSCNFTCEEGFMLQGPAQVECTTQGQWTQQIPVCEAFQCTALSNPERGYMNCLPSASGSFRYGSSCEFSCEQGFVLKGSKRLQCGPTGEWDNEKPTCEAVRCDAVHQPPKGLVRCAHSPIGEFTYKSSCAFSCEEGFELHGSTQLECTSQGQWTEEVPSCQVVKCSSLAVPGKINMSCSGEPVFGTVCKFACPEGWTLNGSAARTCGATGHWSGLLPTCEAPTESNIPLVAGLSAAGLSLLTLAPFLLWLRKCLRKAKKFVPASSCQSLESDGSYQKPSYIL

P-selectin [2] = biological target: T2, P-selectin (Homo sapiens, UniProt P16109); test: Compound was tested in a cell-free SLe-polyacrylamide glycoconjugate binding assay (assay B) in P-selectin
T2 sequence (P16109 whole entry): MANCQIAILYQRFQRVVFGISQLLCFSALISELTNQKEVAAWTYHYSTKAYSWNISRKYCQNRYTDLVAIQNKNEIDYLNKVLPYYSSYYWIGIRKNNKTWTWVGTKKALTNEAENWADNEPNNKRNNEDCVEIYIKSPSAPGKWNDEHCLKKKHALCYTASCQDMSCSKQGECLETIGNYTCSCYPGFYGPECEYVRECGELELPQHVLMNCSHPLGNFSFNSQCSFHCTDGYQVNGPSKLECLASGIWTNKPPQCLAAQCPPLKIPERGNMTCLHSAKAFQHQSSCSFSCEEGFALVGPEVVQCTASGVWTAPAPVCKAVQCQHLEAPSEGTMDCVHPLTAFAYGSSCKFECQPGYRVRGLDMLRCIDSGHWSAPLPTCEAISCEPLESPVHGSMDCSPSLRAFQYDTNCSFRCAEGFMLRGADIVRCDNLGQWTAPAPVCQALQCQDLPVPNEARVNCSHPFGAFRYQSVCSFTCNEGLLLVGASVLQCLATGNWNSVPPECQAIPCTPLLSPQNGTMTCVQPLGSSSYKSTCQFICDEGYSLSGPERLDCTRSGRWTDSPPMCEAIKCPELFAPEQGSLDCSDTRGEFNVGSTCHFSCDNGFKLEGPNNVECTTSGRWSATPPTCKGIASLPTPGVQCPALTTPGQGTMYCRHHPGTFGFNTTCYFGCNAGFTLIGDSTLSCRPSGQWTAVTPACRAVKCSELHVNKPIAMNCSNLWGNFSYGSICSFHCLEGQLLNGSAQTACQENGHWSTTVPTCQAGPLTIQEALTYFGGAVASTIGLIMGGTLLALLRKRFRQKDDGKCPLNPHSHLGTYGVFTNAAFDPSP

E-selectin [3] = biological target: T3, E-selectin (Homo sapiens, UniProt P16581); test: Compound was tested in a cell-free SLe-polyacrylamide glycoconjugate binding assay (assay B) in Selectin E
T3 sequence (P16581 whole entry): T1 sequence (whole entry)

P-selectin [4] = biological target: T2, P-selectin; test: Tested in a cell-free SLe-polyacrylamide glycoconjugate binding assay (assay A) in P-selectin
E-selectin [5] = biological target: T3, E-selectin; test: Compound was tested in a cell-free SLe-polyacrylamide glycoconjugate binding assay (assay A) in Selectin E
P-selectin [6] = biological target: T2, P-selectin; test: Tested in a cell-free SLe-polyacrylamide glycoconjugate binding assay (assay A) in P-selectin; inactive
E-selectin [7] = biological target: T3, E-selectin; test: Compound was tested in a cell-free SLe-polyacrylamide glycoconjugate binding assay (assay A) in Selectin E; inactive
[8] = biological target: T1, E-selectin (Homo sapiens); test: Inhibitory activity against E-selectin was tested in a cell-free SLe-polymer/Selectin E assay, at 3 mM concentration; […].
P-selectin [9] = biological target: T2, P-selectin; test: Compound was tested in a cell-free SLe-polyacrylamide glycoconjugate binding assay (assay B) in P-selectin; value ranges from 1.3-2
[10] = biological target: T1, E-selectin (Homo sapiens); test: Inhibitory activity against E-selectin was tested in a cell-free SLe-polymer/Selectin E assay, at 3 mM concentration.
P-selectin [11] = biological target: T2, P-selectin; test: Compound was tested in a cell-free SLe-polyacrylamide glycoconjugate binding assay (assay A) in P-selectin; value ranges from 1-3
[12] = biological target: T1, E-selectin (Homo sapiens); test: Inhibitory activity against E-selectin was tested in a cell-free SLe-polymer/Selectin E assay, at 3 mM concentration; […]
[13] = biological target: T4, P-selectin (Homo sapiens) (UniProt P16109); details: 1 mM
T4 sequence (whole entry): T2 sequence (P16109 whole entry)
Description: Compound was tested in a cell-free SLe-polyacrylamide glycoconjugate binding assay (assay A) in P-selectin at 1 mM

[14] = biological target: T1, E-selectin (Homo sapiens); test: (§1) Compound was tested in a cell-free SLe-polyacrylamide glycoconjugate binding assay (assay A) in Selectin E at 3 mM
[15] = biological target: T1, E-selectin (Homo sapiens); test: as §1; remark: listed apart in the source

| IC50 (P-selectin [2]) | IC50 (E-selectin [3]) | IC50 (E-selectin [5]) | Compound | also measured |
| --- | --- | --- | --- | --- |
| 5 µM and 1 µM | > 10000 µM | 500 µM and 300 µM | CCOCCOCCOCCOCCCCOCC1OC(CC(=O)N(C(C)C(=O)NCC(=O)OC)C(CCC(=O)O)C(=O)O)C(O)C(O)C1O (stereo not drawn) | IC50 (P-selectin [4]): > 3000 µM |
| 28 µM | > 4000 µM | 3000 µM | COC(=O)CNC(=O)C(CCC(=O)O)N(C(=O)CC1OC(CO)C(O)C(O)C1O)C(CCC(=O)O)C(=O)O (stereo not drawn) | IC50 (P-selectin [6]): Not Active |
| – | > 10000 µM | 360 µM and 1000 µM | COC(=O)CNC(=O)C(C)N(C(=O)CC1OC(CO)C(O)C(O)C1O)C(CCC(=O)O)C(=O)O (stereo not drawn) | – |
| 15 µM | > 4000 µM | 3000 µM | O=C(O)CCC(C(=O)O)N(C(=O)CC1OC(CO)C(O)C(O)C1O)C(CCC(=O)O)C(=O)NCC(=O)O (stereo not drawn) | IC50 (P-selectin [6]): Not Active |
| 39 µM and 142 µM | > 4000 µM | 3000 µM and > 3000 µM | COC(=O)CCC(=O)N(C(CCC(=O)O)C(=O)O)C(CC1OC(CO)C(O)C(O)C1O)C(=O)NCC(=O)OC (stereo not drawn) | IC50 (P-selectin [6]): Not Active |
| 87 µM and 136 µM | > 2500 µM | > 3000 µM | CC(C(=O)NC(C)(C)C)N(C(=O)CC1OC(COc2ccccc2)C(O)C(O)C1O)C(CCC(=O)O)C(=O)O (stereo not drawn) | – |
| 41 µM and 43 µM | > 2500 µM | 3400 µM and 2800 µM | COC(=O)CNC(=O)C(C)N(C(=O)CC1OC(COc2ccccc2)C(O)C(O)C1O)C(CCC(=O)O)C(=O)O (stereo not drawn) | – |
| – | – | 840 µM | COC(=O)CNC(=O)C(CC1OC(C)C(O)C(O)C1O)N(Cc1ccccc1)C(=O)C(NC(=O)CCC(=O)O)C(O)CO (stereo not drawn) | – |
| 18 µM and 25 µM | > 4000 µM | – | O=C(O)CCC(=O)N(C(CCC(=O)O)C(=O)O)C(CC1OC(CO)C(O)C(O)C1O)C(=O)NCC(=O)O (stereo not drawn) | IC50 (P-selectin [6]): Not Active; inhibition [13]: 29%; inhibition [14]: 45%; inhibition [15]: 45% |

The remaining lines, values behind:

| Compound | IC50 (P-selectin [2]) | IC50 (E-selectin [3]) | IC50 (E-selectin [5]) | also measured |
| --- | --- | --- | --- | --- |
| O=C(O)CNC(=O)C(CC1OC(CO)C(O)C(O)C1O)N(CC(=O)O)C(=O)C(F)(F)F (stereo not drawn) | – | – | – | inhibition [1]: 42% |
| CCOCCOCCOCCOCCCCOCC1OC(CC(=O)NC(CCC(=O)O)C(=O)O)C(O)C(O)C1O (stereo not drawn) | 20 µM | > 10000 µM | – | IC50 (E-selectin [7]): Not Active; IC50 (P-selectin [4]): > 3000 µM |
| CC1OC(CC(C(=O)NCCc2ccccc2)N(CC(=O)NC(CCC(=O)O)C(=O)O)C(=O)CCc2ccc(Oc3ccc(Oc4ccccc4)cc3)cc2)C(O)C(O)C1O (stereo not drawn) | 28 µM | > 4000 µM | 530 µM | IC50 (P-selectin [4]): 283 µM |
| O=C(O)CNC(=O)C(CC1OC(CO)C(O)C(O)C1O)N(CC(=O)O)C(=O)c1ccc(-c2ccccc2)cc1 (stereo not drawn) | – | – | – | inhibition [8]: inactive |
| CC(=O)N[C@H]1[C@H]([C@H](O)[C@H](O)CO)O[C@@](O[C@H]2[C@@H](O)[C@@H](CO)O[C@@H](O[C@@H]([C@H](O[C@@H]3O[C@@H](C)[C@@H](O)[C@@H](O)[C@@H]3O)[C@H](C=O)NC(C)=O)[C@H](O)CO)[C@@H]2O)(C(=O)O)C[C@@H]1O [SIALYL LEWIS X] | – | 1090 µM | 480 µM | IC50 (P-selectin [9]): 1300 µM; IC50 (P-selectin [4]): > 3000 µM |
| O=C(O)CNC(=O)C(CC1OC(CO)C(O)C(O)C1O)N(CC(=O)O)C(=O)Cc1ccc2ccccc2c1 (stereo not drawn) | – | – | – | inhibition [10]: 51% |
| COC(=O)CNC(=O)C(C)N(C(=O)CC1OC(COCCCc2ccc(Oc3ccc(Oc4ccccc4)cc3)cc2)C(O)C(O)C1O)C(CCC(=O)O)C(=O)O (stereo not drawn) | 127 µM and 32 µM | 3420 µM and 3620 µM | 420 µM and 600 µM | IC50 (P-selectin [11]): 1000 µM |
| CC1OC(CC(=O)N(CC(=O)NC(CCC(=O)O)C(=O)O)C(CCc2ccc(Oc3ccc(Oc4ccccc4)cc3)cc2)C(=O)NCCc2ccccc2)C(O)C(O)C1O (stereo not drawn) | 76 µM | > 2500 µM | 950 µM | – |
| CCCCCCCCCCCCCC(=O)N(CC(=O)O)C(CC1OC(CO)C(O)C(O)C1O)C(=O)NCC(=O)O (stereo not drawn) | – | – | – | inhibition [10]: 32% |
| CCCCCC(=O)N(CC(=O)O)C(CC1OC(CO)C(O)C(O)C1O)C(=O)NCC(=O)O (stereo not drawn) | – | – | – | inhibition [1]: 52% |
| CC(=O)N(CC(=O)O)C(CC1OC(CO)C(O)C(O)C1O)C(=O)NCC(=O)O (stereo not drawn) | – | – | – | inhibition [1]: 28% |
| CC(C(=O)NCCc1ccccc1)N(C(=O)CC1OC(COc2ccccc2)C(O)C(O)C1O)C(CCC(=O)O)C(=O)O (stereo not drawn) | 311 µM and 85 µM | > 2500 µM | > 3000 µM | – |
| C/C=C/C=C/C(=O)N(CC(=O)O)C(CC1OC(CO)C(O)C(O)C1O)C(=O)NCC(=O)O (stereo not drawn) | – | – | – | inhibition [12]: inactive |
| O=C(O)CNC(=O)C(CC1OC(CO)C(O)C(O)C1O)N(CC(=O)O)C(=O)CC1c2ccccc2-c2ccccc21 (stereo not drawn) | – | – | – | inhibition [8]: inactive |
| O=C(O)CNC(=O)C(CC1OC(CO)C(O)C(O)C1O)N(CC(=O)O)C(=O)c1ccccc1 (stereo not drawn) | – | – | – | inhibition [10]: 38% |
| O=C(O)CCC(NC(=O)CC1OC(COCCCc2ccc(Oc3ccc(Oc4ccccc4)cc3)cc2)C(O)C(O)C1O)C(=O)O (stereo not drawn) | 4 µM | > 10000 µM | 350 µM | IC50 (P-selectin [4]): 34 µM |
| O=C(O)CNC(=O)C(CC1OC(CO)C(O)C(O)C1O)N(CC(=O)O)C(=O)Cc1cccc2ccccc12 (stereo not drawn) | – | – | – | inhibition [10]: 42% |
| O=C(O)CNC(=O)C(CC1OC(CO)C(O)C(O)C1O)N(CC(=O)O)C(=O)c1cccc2c1Cc1ccccc1-2 (stereo not drawn) | – | – | – | inhibition [10]: 48% |
